US12616750B2, “Combination therapy utilizing DNA alkylating agents and ATR inhibitors” (Merck Patent GmbH, priority 2018, dated 2026)
Values joined by “and” are separate entries in the source; they are usually repeats but may differ in a detail not shown here. Equal values may be shown once. Read-outs that look alike come from different tables or passages of the source. Where a SMILES comes first, the peptide text is derived from it. [ ]: non-standard residue; d: D form. The star is where a group is joined. Dolaproine = CO[C@@H]([C@@H]1CCCN1)[C@@H](C)C(=O)O; Dil = CC[C@H](C)[C@H](NC)[C@@H](CC(=O)O)OC; X1 = C[C@@H](N*)[C@@H](O)c1ccccc1; NMeV = CN[C@H](C(=O)O)C(C)C

How the values were obtained:
MDA-MB-468 cells = test: Dose-matrix combination assay (synergy score, Loewe model); type: cell-based; details: combination with DUBA; MDA-MB-468, 6 d; S ± SD; cutoff ±1
Protocol: (§1) Dose-matrix combination assays were performed as described above, but performed in opague 384-well plates (2k viable cells/well). Compounds were added using Tecan D300e liquid. Protein solutions were supplemented with 0.3% Tween-20 (final) and diluted to 1 μM. All wells were normalized to the maximum amount of DMSO (maximum 0.4%) or Tween-20 added. […] Luminescence values were normalized to luminescence of non-treated cells and dose-response was fitted using Smart Fit. Synergy scores were calculated using LOEWE synergy model.
(§2) The screening of synergistic drug combinations can be accomplished by performing a dose-matrix assay. Therefore, two drugs are serial diluted and mixed at every dose level, yielding a dose-matrix. The drug combination can be additive if the effects of the combination are identical to the added effects of the single agents. However, the effects of the combination might also be stronger than the activity of the single agents. This scenario is termed synergy, whereas weaker combination effects compared to the single agents are termed antagonism. A dose-matrix assay is depicted schematically in FIG. 2 which illustrates the outcomes of a dose-matrix assay: additivity, antagonism and synergy.
(§3) The screening was conducted by serial diluting the duocarmycin derivative DUBA (10) and the DDR inhibitors. […] DUBA was combined in a dose-matrix assay with hycanthone. The cell viability was measured after 6 d of treatment using the CellTiter-Glo assay kit. The signals of the cell viability assay were normalized to untreated cells and fitted. […] By subtracting the modeled data from the fitted data, an excess matrix was generated. The excess matrix can be considered as a visualization of the differences between model and actual data which also highlights spots of either high synergy or antagonism. The quantification of the combination effects, however, was performed by calculating synergy scores. […] Besides synergy score, the potency of the drugs in monotherapy was obtained from these experiments. […] The potency was obtained from this dose-response curve.
(§4) The scattering of S was determined in a sham control experiment to define a cutoff for classifying a combination as truly synergistic or antagonistic. Thus seven different compounds were combined with itself on four different cell lines and the three-σ confidence interval was calculated around the mean of the measurement. […] For the sake of convenience, the cutoff was set to a value of ±1.
(§5) Synergy scores (S) were obtained from the combination experiments that indicated additivity […] if model and actual response were equal. […] The magnitude of the score determined the extent of the combination effects.

HCC-1954 cells [1] = test: as above; type: cell-based
Protocol: as §1, §2, §3, §4, §5

HCC-1954 cells [2] = test: Cytotoxicity (cell viability, CellTiter-Glo, 6 d); type: cell-based; details: Homo sapiens, HCC1954, HCC-1954
Protocol: as §1
After 6 d of treatment, CellTiter-Glo luminescent assay was performed and the luminescence was read on Envision Reader. The results were analyzed using GeneData Screener as described before.

NCI-N87 xenografts = test: Xenograft experiment, therapeutic efficacy; details: single agent: αHER2-6 1.0 mg/kg i.v. single dose; ATRi 50 mg/kg per oral once daily 14 d
Protocol: Female H2d Rag2 mice, 6-8 weeks old, were obtained from Taconic Biosciences, LLC. A xenograft was established by harvesting NCI-N87 cells from cell culture, mixing the cells 1:1 with Matrigel and injecting 2.5×10^6 cells subcutaneously into the flank of the mice. The tumor volume was assessed twice weekly by length measurements in two dimensions using calipers. The volume was calculated following eq. 3 where the length L is the longest tumor length and W is the shortest tumor length.
After an initial tumor growth phase, mice were randomized and assigned to treatment groups comprising 10 animals. The initial tumor volume amounted to approximately 100 mm^3 when treatment started. Vehicle treated mice obtained a solution of 0.5% Methocel, 0.25% Tween-20 in water. […] Mice were weighted twice weekly to assess the body-weight during the treatment period. The criteria to terminate the study for single animals were skin ulcerations, tumor length exceeding 15 mm or tumor exceeding 10% of the body weight. In addition, body weight loss was a criterium for termination if body weight loss exceeded 20% accompanied with a haggard appearance, body weight loss exceeded 20% on three successive days or if body weight loss exceeded 25% of the adjusted body weight.

HCC-1954 cells [3] = test: MNED curve-shift assay; type: cell-based; details: for MNED (maximum non-efficacious dose): HCC-1954
Description: Therefore a curve-shift assay system was established. In a first step, a dose-response curve (DRC) is obtained by treating a certain cell line with an inhibitor. The maximum non-efficacious dose (MNED) can be derived from this DRC. MNED is the highest dose, that can be added to a certain cell line without affecting the viability. The activity of the ADC is confirmed in a separate experiment. Finally, a combination experiment can be conducted. Therefore, the ADC and ADC plus inhibitor at MNED are added to the cells. The inhibitor is tested in parallel at MNED as a control. Due to the application of inhibitor at MNED, no reduction in cell viability caused by the inhibitor is expected. Three outcomes are possible: 1) The combination of ADC plus inhibitor is equipotent as the ADC only. […] Such a result would be interpreted as depotentiation. […] In this case, the potency of the ADC is potentiated.
Potentiation effects are expressed as dose-reduction indices (DRI), which can be calculated by dividing the IC50-value of ADC by the IC50-value of ADC plus inhibitor according to eq. 1
Curve-shift assays were conducted as follows: The cell number and viability was determined using ViCell™-XR (Beckman Coulter) and seeded in opague 96-well plate (10k viable cells/well). After seeding, the plate was incubated (37° C., 5% C02) in a humid chamber overnight. Compounds were diluted in the appropriate medium, added to the cells and the plate was incubated (37° C., 5% CO2, 6 d) in a humid chamber. After 30 min equilibration at room temperature, CellTiter-Glo reagent (Promega) was added. After the plate was shaken (3 min, 550 rpm, rt) it was incubated (10 min, rt) and luminescence was read on a synergy 4 plate reader (BioTek). Evaluation was performed using GraphPad Prism version 6.05. Therefor luminescence values were normalized to luminescence values of non-treated cells and dose-response was fitted with 4-point logistic fit.
The determination of dose-reduction indices (DRI) in a maximum non-efficacious dose (MNED) curve-shift assay is a 3-step process as depicted exemplarily in FIG. 13. The cytotoxicity of the ADC is confirmed in a cell viability assay in an initial step. […] In the second step. the MNED of the ATRi was determined. […] In order to obtain a full […] for the combination, the starting concentration of the ADC was lowered compared to the experiment in step 1.

[4] = Xenograft experiment, tolerability (body weight); parameters: species or system H2d Rag2 mice; details: mouse, in vivo
Protocol: The tolerability of the anti-cancer treatment was assessed considering the overall condition of the animal as well as body-weight changes of the mice (FIG. 22).

MDA-MB-453 cells = test: Dose-matrix combination assay (synergy score, Loewe model); type: cell-based
Protocol: (§6) Dose-matrix combination assays were performed as described above, but performed in opague 384-well plates (2k viable cells/well). Compounds were added using Tecan D300e liquid. Protein solutions were supplemented with 0.3% Tween-20 (final) and diluted to 1 μM. All wells were normalized to the maximum amount of DMSO (maximum 0.4%) or Tween-20 added. Read out of luminescence was performed on Envision 2104 Multilabel Reader (Perkin Elmer) and data were evaluated using Genedata Screener® version 14.0.6-Standard (Genedata AG). Luminescence values were normalized to luminescence of non-treated cells and dose-response was fitted using Smart Fit. Synergy scores were calculated using LOEWE synergy model.
as §2

NCI-N87 cells = test: as above; type: cell-based
Protocol: as §6, §2

[5] = combination with DUBA, HCC-1954, 6 d, S ± SD, cutoff ±1
[6] = combination with ADC αHER2-2, HCC-1954
[7] = ATRi alone, mean ± SD, read-out: Cytotoxicity IC50
[8] = combination with AZD6738, HCC-1954, 6 d
[9] = combination with DUBA, cell line not given (screen on HCC-1954 or MDA-MB-468)

NC(=O)Nc1cc(-c2cccc(F)c2)sc1C(=O)N[C@H]1CCCNC1 [AZD7762]
Synergy score S (MDA-MB-468 cells): 2.6+0.2
Synergy score S (HCC-1954 cells [1]; [5]): 3.6±0.4

C[C@@H]1COCCN1c1cc(C2(S(C)(=O)=O)CC2)nc(-c2cccc3[nH]ccc23)n1 [AZ20]
Synergy score S (HCC-1954 cells [1]; [6]): 5.8±0.4
Synergy score S (HCC-1954 cells [1]; [5]): 5.1±0.5

C[C@@H]1COCCN1c1cc(C2(S(C)(=O)=O)CC2)c2ccnc(-c3ccn[nH]3)c2n1 [BAY286]
Synergy score S (HCC-1954 cells [1]; [6]): 10.4±0.2
Synergy score S (HCC-1954 cells [1]; [5]): 9.5±0.8
IC50 (HCC-1954 cells [2]; [7]): 0.08 ± 0.02 µM

N#C/C(C(=O)c1ccc(Cl)cc1Cl)=C1/NC(=O)c2ccc(Cl)cc2N1 [Ciliobrevin D]
Synergy score S (MDA-MB-468 cells): 0.2±0.5
Synergy score S (HCC-1954 cells [1]; [5]): 1.2+0.6

Nc1nc(NC2CC2)cc(-c2cccc(Cl)c2Cl)n1 [TH588]
Synergy score S (MDA-MB-468 cells): −0.4+0.3
Synergy score S (HCC-1954 cells [1]; [5]): −0.2±0.3

C=CCNC1=C2C[C@@H](C)C[C@H](OC)[C@H](O)[C@@H](C)/C=C(\C)[C@H](OC(N)=O)[C@@H](OC)/C=C\C=C(/C)C(=O)NC(=CC1=O)C2=O [Tanespimycin]
Synergy score S (HCC-1954 cells [1]): 1.4±0.4

O=C(c1cc(Cc2n[nH]c(=O)c3ccccc23)ccc1F)N1CCN(C(=O)C2CC2)CC1 [Olaparib]
Synergy score S (MDA-MB-468 cells): 1.1+0.1
Synergy score S (HCC-1954 cells [1]; [5]): 0.6+0.4

Cc1cnc(NC(=O)Nc2cc(Br)c(C)cc2OC[C@@H]2CNCCO2)cn1 [LY2603618]
Synergy score S (MDA-MB-468 cells): 4.4+1.7
Synergy score S (HCC-1954 cells [1]; [5]): 4.1+0.3

COc1cc2cc(C(=O)N3C[C@@H](CCl)c4c3cc(O)c3ccccc43)[nH]c2c(OC)c1OC [compound 24]
Synergy score S (HCC-1954 cells [1]; [8]): 6.1 ± 1.2
Synergy score S (HCC-1954 cells [1]; combination with AZD6738, HCC-1954, 6 d, listed as CBI-TMI (24)): 6.1±1.2
IC50 (HCC-1954 cells [2]; duocarmycin variant alone, mean ± SD or mean (individual values), read-out: IC50): 0.024 ± 0.032 µM

Cc1c(N)nc([C@H](CC(N)=O)NC[C@H](N)C(N)=O)nc1C(=O)N[C@H](C(=O)N[C@H](C)[C@@H](O)[C@H](C)C(=O)NC(C(=O)NCCc1nc(-c2nc(C(=O)NCCCNCCCCN)cs2)cs1)[C@@H](C)O)[C@@H](O[C@@H]1O[C@@H](CO)[C@@H](O)[C@H](O)[C@@H]1O[C@H]1O[C@H](CO)[C@@H](O)[C@H](OC(N)=O)[C@@H]1O)c1cnc[nH]1 (some centres unmarked) [Bleomycin A5]
Synergy score S (MDA-MB-468 cells): 0.4+1.0
Synergy score S (HCC-1954 cells [1]; [5]): 1.6±1.0

COCC(=O)NC/C=C/c1ccc2ncnc(Nc3ccc(Oc4ccc(C)nc4)c(C)c3)c2c1 [CP724714]
Synergy score S (MDA-MB-468 cells): additive effects
Synergy score S (HCC-1954 cells [1]; [5]): additive effects

CC[C@H](C)[C@@H]([C@@H](CC(=O)N1CCC[C@H]1[C@H](OC)[C@@H](C)C(=O)N[C@H](C)[C@@H](O)c1ccccc1)OC)N(C)C(=O)[C@@H](NC(=O)[C@@H](NC)C(C)C)C(C)C [MMAE] (H-[NMeV]V[Dil][Dolaproine]-X1)
Synergy score S (HCC-1954 cells [1]; [8]): 2.2+0.1

S=C(NCc1ccc2c(c1)OCO2)N1CCN(c2ncnc3c2oc2ccccc23)CC1 [Amuvatinib]
Synergy score S (HCC-1954 cells [1]; [9]): did not yield a synergy score exceeding the cutoff

O=c1cc(-c2cccc3c2Sc2ccccc2S3)oc(N2CCOCC2)c1 [KU-55933]
Synergy score S (HCC-1954 cells [1]; [5]): 2.1±1.2

C=CCn1c(=O)c2cnc(Nc3ccc(N4CCN(C)CC4)cc3)nc2n1-c1cccc(C(C)(C)O)n1 [AZD1775]
Synergy score S (MDA-MB-468 cells): 0.1±0.4
Synergy score S (HCC-1954 cells [1]; [5]): 0.8±0.1

O=c1cc(N2CCOCC2)oc2c(-c3cccc4c3sc3ccccc34)cccc12 [NU7441]
Synergy score S (HCC-1954 cells [1]; [9]): did not yield a synergy score exceeding the cutoff

C[C@@H]1COCCN1c1cc(-c2ccnn2C)c2ccnc(-c3ccn[nH]3)c2n1 [ATRi 1]
tumor response (tumor volume) (NCI-N87 xenografts): transient tumor stasis was induced until day 8
Synergy score S (HCC-1954 cells [1]): 12.5±1.7 and 12.0±0.6
MNED (maximum non-efficacious dose) (HCC-1954 cells [3]): 40 nM
effect on cell viability at MNED (HCC-1954 cells [3]; HCC-1954, at 40 nM, inhibitor alone (quality control)): did not reduce cell viability
tolerability (conclusion) [4]: well tolerated
Synergy score S (MDA-MB-453 cells): 13.3±0.3 and 11.4 ± 1.4
Synergy score S (NCI-N87 cells): 7.1±0.8 and 6.1±0.4

Nc1ccn([C@@H]2O[C@H](CO)[C@@H](O)C2(F)F)c(=O)n1 [Gemcitabine]
Synergy score S (HCC-1954 cells [1]; [8]): 6.9±0.3
Synergy score S (MDA-MB-453 cells; combination with AZD6738, MDA-MB-453): 1.6±1.2
Synergy score S (NCI-N87 cells; combination with AZD6738, NCI-N87): 1.1±0.5

Cc1nc(S(C)(=O)=O)ccc1-c1cc(N2CCOC[C@H]2C)nc2c(-c3ccn[nH]3)nccc12 [BAY73]
Synergy score S (HCC-1954 cells [1]; [6]): 14.4±1.1
Synergy score S (HCC-1954 cells [1]; [5]): 12.4±0.8
MNED (maximum non-efficacious dose) (HCC-1954 cells [3]): 14 nM
IC50 (HCC-1954 cells [2]; [7]): 0.12 ± 0.03 µM

COc1cc2cc(c1Cl)N(C)C(=O)C[C@H](OC(=O)[C@H](C)N(C)C(=O)CCS)[C@]1(C)O[C@H]1[C@H](C)[C@@H]1C[C@@](O)(NC(=O)O1)[C@H](OC)/C=C/C=C(\C)C2 [DM1]
Synergy score S (HCC-1954 cells [1]): 2.8 ± 0.5

CCN(CC)CCNc1ccc(CO)c2sc3ccccc3c(=O)c12 [Hycanthone]
Synergy score S (HCC-1954 cells [1]; [9]): 0.1

Nc1nc(OCc2cc(Br)cs2)c2[nH]cnc2n1 [Lomeguatrib]
Synergy score S (MDA-MB-468 cells): 2.8±2.3
Synergy score S (HCC-1954 cells [1]; [5]): 0.1±0.3
